Data published in patent EP4803525A1 (Hefei Institute of Pharmaceutical Industry Co., Ltd., priority 2023, dated 2025).
Blank lines part the entries; values can stand above or below the compound they belong to.

Assays:
[1] = tested on: mouse eosinophilic asthma model; assay: Eosinophilic asthma induced by house dust mite extract in mice; conditions: eosinophilic asthmatic mice, n=10; for IL-4 / IgE: bronchoalveolar lavage fluid, Mean ± SD; for Eosinophils (%): lung lavage fluid; for Eosinophils (%) / Number of sneezes (20 minutes): mean ± SD; for Number of sneezes (20 minutes): within 20 minutes after the last administration
Description: The number of eosinophils in the lung lavage fluid of mice and the number of sneezes in mice within 20 minutes after the last administration were counted.

[2] = tested on: rat model of chronic obstructive pulmonary disease (COPD); assay: Chronic obstructive pulmonary disease in rats (fumigation and intratracheal LPS); conditions: n=8; for 14-day FEV 1/FVC (%): day 14 of treatment; for 14-day FEV 1/FVC (%) / 28-day FEV 1/FVC (%): Mean ± SD; for 28-day FEV 1/FVC (%): last administration (28 days); for Pathological score: lung tissue, HE staining; for Pathological score / IL-1β / TNF-α: mean ± SD; for IL-1β / TNF-α: serum, ELISA
Description: Subsequently, the SD rats were randomly divided into 5 groups according to their body weight, with 8 rats in each group and half male and half female.
Except for the blank control group, SD rats were used to establish a rat model of chronic obstructive pulmonary disease (COPD) by fumigation and intratracheal instillation of LPS. On days 1, 14, 28 and 42 of modeling, the rats were anesthetized with chloral hydrate and then 125 µL of LPS (2 mg/mL) solution was instilled into the trachea. For the rest of the time, the animals were placed in a self-made fumigation box and each group of rats was continuously fumigated with 10 lit cigarettes for 1.5 hours (once in the morning and once in the afternoon) for 50 consecutive days. After the model was established, the rats in each group were given the drug twice a day for 28 consecutive days.
The rat lung function test instrument was used to measure FVC and FEV1 on day 14 of treatment and at the last administration, and the FEV1/FVC ratio was calculated.
Blood samples were collected after the last administration of the drug to measure inflammatory markers. Levels of IL-1β and TNF-α in serum were measured according to the ELISA instructions.
After the last treatment, all three lobes of the right lung of the rats were removed, fixed and dehydrated in 10% formaldehyde, embedded in paraffin, sectioned, and stained with hematoxylin and eosin (HE). The morphological changes of the lung tissue of the rats in each group were observed.

hERG potassium channel = molecular target: T1, hERG potassium channel (Homo sapiens, UniProt Q12809); assay: hERG whole-cell patch-clamp test in HEK-293 cells; assay type: cell-based; conditions: HEK-293 cells stably expressing hERG, whole-cell patch clamp, 0.03-30 µM, read-out: h ERG IC50
T1 construct: host or cells: HEK-293
T1 sequence (Q12809 whole entry): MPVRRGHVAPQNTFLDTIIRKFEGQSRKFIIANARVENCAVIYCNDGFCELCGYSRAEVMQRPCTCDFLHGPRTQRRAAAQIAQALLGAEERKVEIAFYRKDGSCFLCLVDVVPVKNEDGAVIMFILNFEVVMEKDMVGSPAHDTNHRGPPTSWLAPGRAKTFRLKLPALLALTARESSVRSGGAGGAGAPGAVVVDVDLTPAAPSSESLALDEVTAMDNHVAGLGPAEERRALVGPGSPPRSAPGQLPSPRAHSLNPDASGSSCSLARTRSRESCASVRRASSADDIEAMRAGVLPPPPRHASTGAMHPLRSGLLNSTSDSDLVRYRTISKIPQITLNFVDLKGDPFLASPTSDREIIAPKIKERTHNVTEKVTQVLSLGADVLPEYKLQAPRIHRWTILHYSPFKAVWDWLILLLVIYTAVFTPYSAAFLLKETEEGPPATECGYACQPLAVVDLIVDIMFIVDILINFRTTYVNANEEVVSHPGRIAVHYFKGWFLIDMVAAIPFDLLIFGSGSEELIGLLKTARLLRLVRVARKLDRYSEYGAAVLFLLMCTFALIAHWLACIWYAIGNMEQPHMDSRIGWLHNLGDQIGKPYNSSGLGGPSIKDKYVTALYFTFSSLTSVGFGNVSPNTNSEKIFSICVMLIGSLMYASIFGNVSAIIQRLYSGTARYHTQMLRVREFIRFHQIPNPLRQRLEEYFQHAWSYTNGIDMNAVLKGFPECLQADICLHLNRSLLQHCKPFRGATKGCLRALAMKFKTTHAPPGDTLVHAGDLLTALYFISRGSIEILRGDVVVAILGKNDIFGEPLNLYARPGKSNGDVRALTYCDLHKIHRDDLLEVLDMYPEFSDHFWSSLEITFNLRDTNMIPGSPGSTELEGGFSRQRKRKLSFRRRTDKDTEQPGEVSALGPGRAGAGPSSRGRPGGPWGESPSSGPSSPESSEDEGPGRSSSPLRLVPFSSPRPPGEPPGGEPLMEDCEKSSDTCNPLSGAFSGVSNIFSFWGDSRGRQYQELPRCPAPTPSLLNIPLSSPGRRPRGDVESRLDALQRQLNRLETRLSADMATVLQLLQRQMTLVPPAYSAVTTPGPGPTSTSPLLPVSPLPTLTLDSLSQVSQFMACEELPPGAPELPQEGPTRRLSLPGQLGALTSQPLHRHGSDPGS
Description: HEK-293 cell line stably expressing hERG potassium channels (purchased from Creacell, catalog number: A-0320) was used. HEK293 cell lines were cultured in DMEM medium containing 10% fetal bovine serum and 0.8 mg/mL G418 at a temperature of 37°C and a carbon dioxide concentration of 5%. For patch-clamp assays, cells were separated using TrypLE™ Express before the assay. 4 × 10^3 cells were seeded onto coverslips and cultured in 24-well plates (final volume: 500 µL). The assays were performed 18 hours later.
Whole-cell patch-clamp test: after whole-cell sealing is achieved, the cell membrane voltage is clamped to -80mV. […] Data was collected every 10 seconds to observe the effect of the drug on hERG tail current. A -50 mV stimulus of 0.5 s was used as the leakage current detection. Experimental data were collected by the EPC-10 amplifier and stored in the software. Once the hERG current recorded in whole cells stabilized, drug administration began. Each drug concentration was administered for 5 minutes (or the current stabilized) before the next concentration was measured.

[3] = tested on: bleomycin-induced pulmonary fibrosis in rats; assay: Bleomycin-induced pulmonary fibrosis in rats; conditions: mean ± SD, n=10; for Percentage of lung collagen fibers (%): Masson's staining; for IL-6 / TGF-β: bronchoalveolar lavage fluid, ELISA
Description: 50 SD rats were randomly divided into 5 groups according to their body weight, with 10 rats in each group and half male and half female.
After anesthetizing rats with chloral hydrate, bleomycin solution was injected into the trachea through the vocal cords at a dose of 5 mg/kg and a volume of 1 ml/kg; rats in the blank control group were injected with an equal volume of physiological saline into the trachea. […] Blood and lungs were collected from each group of animals on day 22. After euthanizing the rats, the trachea was exposed, and an intravenous cannula was inserted into the rat's bronchus. The trachea was lavaged twice with PBS (5 ml), and the lavage fluid was collected. Then, centrifugation was performed at 1500 r/min for 10 min. The supernatant was collected.

PDE4B2A = molecular target: T2, PDE4B2A (Homo sapiens, UniProt Q07343); assay: Selectivity for PDE4 enzyme isotypes, same detection method as PDE4B; assay type: biochemical
T2 construct: purchased BPS bioscience
T2 sequence (Q07343 1-564 isoform Q07343-2): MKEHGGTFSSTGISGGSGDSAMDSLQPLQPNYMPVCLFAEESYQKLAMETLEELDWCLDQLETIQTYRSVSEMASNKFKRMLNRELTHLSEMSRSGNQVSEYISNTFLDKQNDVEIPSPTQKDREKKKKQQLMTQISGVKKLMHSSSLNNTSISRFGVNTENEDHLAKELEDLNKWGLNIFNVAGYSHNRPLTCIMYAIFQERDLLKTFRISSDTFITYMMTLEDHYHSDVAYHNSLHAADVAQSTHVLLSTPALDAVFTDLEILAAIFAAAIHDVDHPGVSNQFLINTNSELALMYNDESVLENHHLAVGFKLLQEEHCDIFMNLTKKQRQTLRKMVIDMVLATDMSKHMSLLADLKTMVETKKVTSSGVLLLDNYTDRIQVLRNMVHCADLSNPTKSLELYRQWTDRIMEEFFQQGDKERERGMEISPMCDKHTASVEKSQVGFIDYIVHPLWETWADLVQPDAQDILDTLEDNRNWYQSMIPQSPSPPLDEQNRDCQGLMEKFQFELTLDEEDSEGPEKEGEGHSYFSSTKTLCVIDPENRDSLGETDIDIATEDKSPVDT
Description: (§1) 2.1 Compound preparation and treatment: all compounds were prepared into 50 mM stock solutions using dimethyl sulfoxide.
(§2) 2.2 Preparation of working stock solution: a) the reference rolipram was serially diluted 3 times with dimethyl sulfoxide starting from 2 mmol, to a total of 10 concentrations. b) 2 mmol of the compound of the present invention was serially diluted three times with dimethyl sulfoxide (DMSO) to a total of 10 concentrations. c) A 200X positive control (2 mM rolipram) and a 200X vector control (100% dimethyl sulfoxide) were prepared. d) The compound plate was centrifuged at 1000 rpm for 1 minute.
(§3) • a) An Echo 550 was used to transfer 20 nL of compound dilution to each well of the detection plate. • b) The test plate was sealed and centrifuged at 1000 rpm for 1 minute. • c) 2X PDE4B2 was prepared in frozen PDE detection buffer. • d) 2 µL of 2X PDE4B2 was added to each well of the detection plate (prepared in step b). • e) The test plate was sealed and incubated for 10 minutes under RT conditions. • f) 2X Cyclic-3',5'-AMP was prepared in PDE detection buffer. • g) 2 µl of 2X Cyclic-3',5'-AMP (prepared in step f) was added to each well of the detection plate (prepared in step e) to initiate the reaction. Incubation was performed at room temperature for 60 minutes. • h) 4 µL of AMP-Glo reagent I was added. • i) 8 µL of AMP detection solution was added. Incubation was performed at room temperature for 60 minutes. • k) The RLU signal was read on the Envision 2105 reader.
(§4) Same detection method as PDE4B

PDE4D2 = molecular target: T3, PDE4D2 (Homo sapiens, UniProt Q08499); assay: as above; assay type: biochemical
T3 construct: purchased BPS bioscience
T3 sequence (Q08499 303-809): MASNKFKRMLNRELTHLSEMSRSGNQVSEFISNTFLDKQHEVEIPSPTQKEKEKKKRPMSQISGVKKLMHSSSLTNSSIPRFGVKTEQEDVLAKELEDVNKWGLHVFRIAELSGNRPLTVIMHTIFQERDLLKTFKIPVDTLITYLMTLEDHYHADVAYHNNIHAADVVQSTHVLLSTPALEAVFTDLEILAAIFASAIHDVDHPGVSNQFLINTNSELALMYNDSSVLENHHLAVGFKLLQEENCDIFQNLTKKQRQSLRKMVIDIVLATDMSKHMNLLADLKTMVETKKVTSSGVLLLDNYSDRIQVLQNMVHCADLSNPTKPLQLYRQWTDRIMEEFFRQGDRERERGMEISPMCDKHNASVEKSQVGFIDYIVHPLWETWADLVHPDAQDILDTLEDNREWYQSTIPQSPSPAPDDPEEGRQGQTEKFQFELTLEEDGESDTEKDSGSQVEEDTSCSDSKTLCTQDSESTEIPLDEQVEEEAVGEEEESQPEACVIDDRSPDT
Description: as §1, §2, §3, §4

PDE4C1 = molecular target: T4, PDE4C1 (Homo sapiens, UniProt Q08493); assay: as above; assay type: biochemical
T4 construct: purchased BPS bioscience
T4 sequence (Q08493 whole entry): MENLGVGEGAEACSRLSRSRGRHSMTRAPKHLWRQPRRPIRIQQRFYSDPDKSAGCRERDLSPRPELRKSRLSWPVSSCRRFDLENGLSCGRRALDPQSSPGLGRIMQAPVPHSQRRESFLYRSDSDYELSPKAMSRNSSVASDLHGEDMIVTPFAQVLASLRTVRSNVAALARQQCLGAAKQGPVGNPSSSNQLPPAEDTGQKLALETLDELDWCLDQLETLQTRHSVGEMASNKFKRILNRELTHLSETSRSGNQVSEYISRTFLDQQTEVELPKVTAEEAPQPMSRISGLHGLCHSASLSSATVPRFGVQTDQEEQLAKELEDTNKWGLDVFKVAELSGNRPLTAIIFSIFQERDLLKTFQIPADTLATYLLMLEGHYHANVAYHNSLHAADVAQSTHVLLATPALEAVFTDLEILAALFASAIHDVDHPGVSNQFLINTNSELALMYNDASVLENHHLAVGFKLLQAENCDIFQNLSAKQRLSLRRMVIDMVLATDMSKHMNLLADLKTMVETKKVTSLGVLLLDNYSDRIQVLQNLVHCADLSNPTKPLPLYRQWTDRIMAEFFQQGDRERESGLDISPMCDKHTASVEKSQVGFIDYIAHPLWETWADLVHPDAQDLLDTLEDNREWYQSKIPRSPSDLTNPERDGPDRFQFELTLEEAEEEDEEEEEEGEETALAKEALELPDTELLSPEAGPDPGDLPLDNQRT
Description: as §1, §2, §3, §4

PDE4D3 = molecular target: T5, PDE4D3 (Homo sapiens, UniProt Q08499); assay: as above; assay type: biochemical
T5 construct: purchased BPS bioscience
T5 sequence (Q08499 1-673 isoform Q08499-2): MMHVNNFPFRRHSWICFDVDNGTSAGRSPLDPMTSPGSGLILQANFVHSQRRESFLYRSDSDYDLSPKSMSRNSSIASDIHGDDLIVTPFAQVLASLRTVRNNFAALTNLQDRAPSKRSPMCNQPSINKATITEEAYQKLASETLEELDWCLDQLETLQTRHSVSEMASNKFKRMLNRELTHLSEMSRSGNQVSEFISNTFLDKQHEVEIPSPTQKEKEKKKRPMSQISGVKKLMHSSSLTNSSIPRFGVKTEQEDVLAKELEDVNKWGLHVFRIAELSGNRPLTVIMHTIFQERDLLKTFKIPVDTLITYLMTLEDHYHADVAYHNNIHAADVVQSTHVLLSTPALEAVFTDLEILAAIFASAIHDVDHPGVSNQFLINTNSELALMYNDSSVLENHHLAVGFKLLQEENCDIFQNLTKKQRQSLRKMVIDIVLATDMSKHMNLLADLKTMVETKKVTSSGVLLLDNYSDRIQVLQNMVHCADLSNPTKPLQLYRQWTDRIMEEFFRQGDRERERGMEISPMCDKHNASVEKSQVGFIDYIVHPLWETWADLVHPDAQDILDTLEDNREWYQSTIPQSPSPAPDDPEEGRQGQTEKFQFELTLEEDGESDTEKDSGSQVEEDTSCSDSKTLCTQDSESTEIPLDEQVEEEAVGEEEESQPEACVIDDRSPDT
Description: as §1, §2, §3, §4

PDE4A1A = molecular target: T6, PDE4A1A (Homo sapiens, UniProt P27815); assay: as above; assay type: biochemical
T6 construct: purchased BPS bioscience
T6 sequence (P27815 1-647 isoform P27815-4): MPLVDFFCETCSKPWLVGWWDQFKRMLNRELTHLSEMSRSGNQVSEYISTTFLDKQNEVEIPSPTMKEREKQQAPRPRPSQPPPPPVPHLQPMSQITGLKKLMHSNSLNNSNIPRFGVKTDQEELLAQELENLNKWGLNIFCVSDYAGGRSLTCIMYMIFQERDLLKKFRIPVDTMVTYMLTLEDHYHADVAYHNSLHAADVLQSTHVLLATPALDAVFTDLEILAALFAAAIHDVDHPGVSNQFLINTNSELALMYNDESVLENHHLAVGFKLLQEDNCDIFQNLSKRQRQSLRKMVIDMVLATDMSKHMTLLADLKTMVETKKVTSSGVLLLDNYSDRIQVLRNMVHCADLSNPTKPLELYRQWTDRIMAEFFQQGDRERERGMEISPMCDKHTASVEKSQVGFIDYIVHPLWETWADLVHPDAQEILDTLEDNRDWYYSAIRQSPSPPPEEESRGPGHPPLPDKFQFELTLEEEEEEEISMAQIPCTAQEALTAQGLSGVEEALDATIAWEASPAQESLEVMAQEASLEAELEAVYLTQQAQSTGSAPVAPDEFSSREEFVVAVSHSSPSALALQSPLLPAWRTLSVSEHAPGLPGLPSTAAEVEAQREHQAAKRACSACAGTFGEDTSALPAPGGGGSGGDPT
Description: as §1, §2, §3, §4

[4] = 5 mg/kg twice daily for 14 days
[5] = 10 mg/kg twice daily for 14 days
[6] = 20 mg/kg twice daily for 14 days
[7] = 5 mg/kg twice a day for 28 days
[8] = 10 mg/kg twice a day for 28 days
[9] = 20 mg/kg twice a day for 28 days
[10] = 5 mg/kg intragastric twice daily for 14 days
[11] = 10 mg/kg intragastric twice daily for 14 days
[12] = 20 mg/kg intragastric twice daily for 14 days

Structure (SMILES): O=C(O)Cc1ccc(Nc2nc(N3CCC(c4ncc(Cl)cn4)CC3)nc3c2S(=O)(=O)CCC3)cc1F [Example 11, 2-(4-((2-(4-(5-chloropyrimidin-2-yl)piperidin-1-yl)-5,5-dioxo-7,8-dihydro-6H -thiapyrano[3,2-d]pyrimidin-4-yl)amino)-2-fluorophenyl)acetic acid]
IL-4 [1, 4]: 70.92 ± 10.87 pg/mL
IgE [1, 4]: 266.55 ± 52.03 pg/mL
IL-4 [1, 5]: 59.38 ± 9.90 pg/mL
IgE [1, 5]: 219.05 ± 38.74 pg/mL
IL-4 [1, 6]: 51.13 ± 16.07 pg/mL
IgE [1, 6]: 189.36 ± 56.69 pg/mL
Eosinophils (%) [1, 4]: 21.97±2.58 %
Eosinophils (%) [1, 5]: 17.93±3.30 %
Eosinophils (%) [1, 6]: 16.04±2.97 %
Number of sneezes (20 minutes) [1, 4]: 17.9±3.4
Number of sneezes (20 minutes) [1, 5]: 16.3±3.7
Number of sneezes (20 minutes) [1, 6]: 13.8±1.9
14-day FEV 1/FVC (%) ([2]; 5 mg/kg twice a day): 66.65±5.48 %
28-day FEV 1/FVC (%) ([2]; 5 mg/kg twice a day): 69.99±2.65 %
14-day FEV 1/FVC (%) ([2]; 10 mg/kg twice a day): 72.14±6.56 %
28-day FEV 1/FVC (%) ([2]; 10 mg/kg twice a day): 75.30±1.84 %
14-day FEV 1/FVC (%) ([2]; 20 mg/kg twice a day): 76.78±5.41 %
28-day FEV 1/FVC (%) ([2]; 20 mg/kg twice a day): 77.10±1.81 %
Pathological score [2, 7]: 3.83 ± 0.75
Pathological score [2, 8]: 2.00±0.63
Pathological score [2, 9]: 1.83±0.41
IL-1β [2, 7]: 71.13 ± 16.14 pg/mL
TNF-α [2, 7]: 118.36 ± 27.30 pg/mL
IL-1β [2, 8]: 51.92 ± 16.06 pg/mL
TNF-α [2, 8]: 90.15 ± 15.79 pg/mL
IL-1β [2, 9]: 50.75 ± 15.07 pg/mL
TNF-α [2, 9]: 73.23 ± 11.78 pg/mL
IC50 (hERG potassium channel): > 30 µM
Percentage of lung collagen fibers (%) [3, 10]: 16.1±4.6 %
Percentage of lung collagen fibers (%) [3, 11]: 9.7±2.2 %
Percentage of lung collagen fibers (%) [3, 12]: 8.5±2.5 %
IL-6 [3, 10]: 34.8 ± 3.7 pg/mL
TGF-β [3, 10]: 79.0 ± 6.4 pg/mL
IL-6 [3, 11]: 32.5 ± 6.1 pg/mL
TGF-β [3, 11]: 69.1 ± 6.3 pg/mL
IL-6 [3, 12]: 28.3 ± 3.9 pg/mL
TGF-β [3, 12]: 56.3 ± 5.2 pg/mL

IC50 (PDE4B2A): 24.5 nM
Selectivity over PDE4B (PDE4B2A; PDE4B2A vs PDE4B2A): 1
IC50 (PDE4D2): 37.1 nM
Selectivity over PDE4B (PDE4D2; PDE4D2 vs PDE4B2A): 1.5
IC50 (PDE4C1): 2190 nM
Selectivity over PDE4B (PDE4C1; PDE4C1 vs PDE4B2A): 89
IC50 (PDE4D3): 65.8 nM
Selectivity over PDE4B (PDE4D3; PDE4D3 vs PDE4B2A): 2.7
IC50 (PDE4A1A): 112 nM
Selectivity over PDE4B (PDE4A1A; PDE4A1A vs PDE4B2A): 4.5
Structure (SMILES): [O-][S+]1CCc2nc(N3CCC(c4ncc(Cl)cn4)CC3)nc(NC3(CO)CCC3)c21 (stereo not drawn) [WO2013026797 (Compound II)]
IC50 at 5 min (hERG potassium channel; human, HEK-293 cells stably expressing hERG potassium channels): > 3.28 µM
